# Assay results from ChEMBL document CHEMBL5523764, “Discovery of NO Donor-Aurovertin Hybrids as Dual Ferroptosis and Apoptosis Inducers for Treating Triple Negative Breast Cancer” (J Med Chem, 2024).
# Activity calls are given as the source filed them. No cut-off for these calls is given here.
# Key:
# 4T1 [1] = experiment: Antimetastatic activity in mouse 4T1 cells implanted in female BALB/c mouse assessed as reduction in number of metastatic nodules in lungs at 10 mg/kg, ip administered once daily for 2 weeks and measured 2 weeks after tumor removal with compound treatment (reference value: 193.7 +/- 6.50); assay type: functional; conditions: time 4 weeks
# MDA-MB-231 [2] = experiment: Induction of apoptosis in human MDA-MB-231 cells assessed as necrotic cells at 1 uM by Annexin V-FITC staining based flow cytometric analysis (reference value: 7.98 %); assay type: functional
# MDA-MB-231 [3] = experiment: Antitumor activity against human MDA-MB-231 cells xenografted in nude mouse assessed as reduction in tumor volume at 10 to 20 mg/kg, ip administered for 30 days; assay type: functional, organism-based; conditions: dose 10-20 mg/kg, time 30.0 day
# MDA-MB-231 [4] = experiment: Induction of ferroptosis in human MDA-MB-231 cells assessed as decrease in FTH1 expression in presence of Fer-1 by Western blot analysis; assay type: functional, cell-based
# [5] = Drug metabolism in nude mouse xenografted with human MDA-MB-231 cells assessed as aurovertin-B release at 10 to 20 mg/kg, ip administered for 30 days by LC-MS/MS analysis; assay type: ADME, organism-based; conditions: in vivo, 720 h, dose 10-20 mg/kg, time 30 day
# [6] = Acute toxicity in female ICR mouse assessed as effect on behavior at <40 mg/kg, ip measured within 24 hrs; assay type: organism-based; conditions: in vivo
# [7] = Acute toxicity in ip female ICR mouse assessed as lethal dose measured after 2 days; assay type: organism-based; conditions: in vivo, time 2 day
# MDA-MB-231 [8] = experiment: Induction of apoptosis in human MDA-MB-231 cells assessed as early apoptotic cells at 0.5 uM by Annexin V-FITC staining based flow cytometric analysis (reference value: 0.17 %); assay type: functional
# MDA-MB-468 = experiment: Antiproliferative activity against human MDA-MB-468 cells assessed as reduction in cell viability incubated for 72 hrs by MTT assay; assay type: functional, cell-based; conditions: MDA-MB-468, 72 h
# 4T1 [9] = experiment: Downregulation of phosphorylated mTOR protein level at Ser2448 residue in mouse 4T1 cells at 0.02 to 2.5 uM incubated for 24 hrs by Western blot analysis; assay type: functional, cell-based; conditions: dose 0.02-2.5 µM
# MDA-MB-231 [10] = experiment: Induction of ferroptosis in human MDA-MB-231 cells assessed as decrease in GPX4 expression in presence of Fer-1 by Western blot analysis; assay type: functional, cell-based
# MDA-MB-231 [11] = experiment: Antitumor activity against human MDA-MB-231 cells xenografted in nude mouse assessed as reduction in tumor size at 10 to 20 mg/kg, ip administered for 30 days; assay type: functional, organism-based; conditions: dose 10-20 mg/kg, time 30.0 day
# MDA-MB-231 [12] = experiment: Antiproliferative activity against human MDA-MB-231 cells assessed as reduction in cell viability incubated for 72 hrs by MTT assay; assay type: functional, cell-based; conditions: MDA-MB-231, 72 h
# 4T1 [13] = experiment: Antiproliferative activity against mouse 4T1 cells assessed as reduction in cell viability incubated for 72 hrs by MTT assay; assay type: functional, cell-based; conditions: 4T1, 72 h
# MDA-MB-231 [14] = experiment: Upregulation of Bid expression in human MDA-MB-231 cells at 0.25 to 1 uM by Western blot analysis; assay type: functional, cell-based; conditions: dose 0.25-1 µM
# MDA-MB-231 [15] = experiment: Induction of apoptosis in human MDA-MB-231 cells assessed as late apoptotic cells at 1 uM by Annexin V-FITC staining based flow cytometric analysis (reference value: 0.02 %); assay type: functional
# [16] = Acute toxicity in female ICR mouse assessed as liver pathological abnormalities at 50 mg/kg, ip measured after 2 days; assay type: organism-based; conditions: in vivo, 48 h, time 2 day
# MDA-MB-231 [17] = experiment: Upregulation of Bax expression in human MDA-MB-231 cells at 0.25 to 1 uM by Western blot analysis; assay type: functional, cell-based; conditions: dose 0.25-1 µM
# [18] = Acute toxicity in female ICR mouse assessed as spleen pathological abnormalities at 50 mg/kg, ip measured after 2 days; assay type: organism-based; conditions: in vivo, 48 h, time 2 day
# MDA-MB-231 [19] = experiment: Induction of apoptosis in human MDA-MB-231 cells assessed as upregulation of cleaved caspase-3 expression at 0.25 to 1 uM by Western blot analysis; assay type: functional, cell-based; conditions: dose 0.25-1 µM
# MDA-MB-231 [20] = experiment: Induction of lipid ROS accumulation in human MDA-MB-231 cells incubated for 24 hrs by BODIPY-C11 probe based flow cytometric analysis; assay type: functional, cell-based; conditions: dose 0.25-1 µM
# MDA-MB-231 [21] = experiment: Induction of apoptosis in human MDA-MB-231 cells assessed as early apoptotic cells at 0.25 uM by Annexin V-FITC staining based flow cytometric analysis (reference value: 0.17 %); assay type: functional
# MDA-MB-231 [22] = experiment: Induction of apoptosis in human MDA-MB-231 cells assessed as upregulation of PARP-1 expression at 0.25 to 1 uM by Western blot analysis; assay type: functional, cell-based; conditions: dose 0.25-1 µM
# MDA-MB-231 [23] = experiment: Antiinvasive activity against human MDA-MB-231 cells assessed as reduction in cell invasion measured after 24 hrs by crystal violet staining based transwell invasion assay; assay type: functional; conditions: dose 0.02-0.5 µM
# MDA-MB-231 [24] = experiment: Antiproliferative activity against human MDA-MB-231 cells assessed as inhibition of cell growth at 0.01 to 100 uM incubated for 72 hrs in presence of Fer-1 by MTT assay; assay type: functional, cell-based; conditions: dose 0.01-100 µM
# MDA-MB-231 [25] = experiment: Induction of ferroptosis in human MDA-MB-231 cells assessed as decrease in GSH/GSSG ratio incubated for 24 hrs by GSH colorimetric assay; assay type: functional, cell-based; conditions: dose 0.25-1 µM
# MDA-MB-231 [26] = experiment: Induction of apoptosis in human MDA-MB-231 cells assessed as viable cells at 0.5 uM by Annexin V-FITC staining based flow cytometric analysis (reference value: 91.03%); assay type: functional; conditions: read-out: Activity
# 4T1 [27] = experiment: Antiinvasive activity against mouse 4T1 cells assessed as reduction in cell invasion measured after 24 hrs by crystal violet staining based transwell invasion assay; assay type: functional; conditions: dose 0.02-0.5 µM
# [28] = Drug metabolism in nude mouse xenografted with human MDA-MB-231 cells assessed as metabolite formation at 10 to 20 mg/kg, ip administered for 30 days by LC-MS/MS analysis; assay type: ADME, organism-based; conditions: in vivo, 720 h, dose 10-20 mg/kg, time 30 day
# MDA-MB-231 [29] = experiment: Induction of apoptosis in human MDA-MB-231 cells assessed as viable cells at 1 uM by Annexin V-FITC staining based flow cytometric analysis (reference value: 91.03%); assay type: functional; conditions: read-out: Activity
# [30] = Acute toxicity in female ICR mouse assessed as kidney pathological abnormalities at 50 mg/kg, ip measured after 2 days; assay type: organism-based; conditions: in vivo, 48 h, time 2 day
# MDA-MB-231 [31] = experiment: Antiinvasive activity against human MDA-MB-231 cells assessed as inhibition of cell invasion at 0.5 uM measured after 24 hrs by crystal violet staining based transwell invasion assay relative to control; assay type: functional
# MDA-MB-231 [32] = experiment: Downregulation of caspase-8 expression in human MDA-MB-231 cells at 0.25 to 1 uM by Western blot analysis; assay type: functional, cell-based; conditions: dose 0.25-1 µM
# MDA-MB-231 [33] = experiment: Induction of lipid ROS accumulation in human MDA-MB-231 cells incubated for 24 hrs in presence of Fer-1 by BODIPY-C11 probe based flow cytometric analysis; assay type: functional, cell-based
# MDA-MB-231 [34] = experiment: Antimigratory activity in human MDA-MB-231 cells assessed as inhibition of cell migration at 0.02 to 0.5 uM incubated for 24 hrs by scratch assay; assay type: functional, cell-based; conditions: dose 0.02-0.5 µM
# 4T1 [35] = experiment: Downregulation of phosphorylated AKT protein level at Ser473 residue in mouse 4T1 cells at 0.02 to 2.5 uM incubated for 24 hrs by Western blot analysis; assay type: functional, cell-based; conditions: dose 0.02-2.5 µM
# 4T1 [36] = experiment: Upregulation of DUSP1 protein expression in mouse 4T1 cells incubated for 24 hrs by Western blot analysis; assay type: functional, cell-based; conditions: dose 0.02-2.5 µM
smiles,measurement,setting,value
CC[C@H]1O[C@@]2(C)[C@H](OC(C)=O)[C@@]1(C)O[C@@H](/C=C/C=C/C=C/c1oc(=O)cc(OC)c1C)[C@@H]2OC(=O)CCC(=O)OC/C=C/COc1no[n+]([O-])c1S(=O)(=O)c1ccccc1,Activity,4T1 [1],64.5
same,Activity,MDA-MB-231 [2],1.42%
same,Activity,MDA-MB-231 [3],Active
same,Activity,MDA-MB-231 [4],inactive
same,Drug metabolism,[5],Metabolite_Detected
same,Activity,[6],Non-Toxic
same,LD50 at 48 h,[7],103 mg/kg
same,Activity,MDA-MB-231 [8],16.23%
same,IC50,MDA-MB-468,450 nM
same,Activity,4T1 [9],Active
same,Activity,MDA-MB-231 [10],inactive
same,Activity,MDA-MB-231 [11],Active
same,IC50,MDA-MB-231 [12],630 nM
same,IC50,4T1 [13],870 nM
same,Activity,MDA-MB-231 [14],Active
same,Activity,MDA-MB-231 [15],8.89%
same,Activity,[16],Non-Toxic
same,Activity,MDA-MB-231 [17],Active
same,Activity,[18],Non-Toxic
same,Activity,MDA-MB-231 [19],Active
same,Activity,MDA-MB-231 [20],Dose-Dependent Effect
same,Activity,MDA-MB-231 [21],12.97%
same,Activity,MDA-MB-231 [22],Active
same,Activity,MDA-MB-231 [23],Dose-Dependent Effect
same,Activity,MDA-MB-231 [24],inactive
same,Activity,MDA-MB-231 [25],Dose-Dependent Effect
same,viability at 0.5 µM,MDA-MB-231 [26],75.3%
same,Activity,4T1 [27],Dose-Dependent Effect
same,Drug metabolism,[28],Metabolite_Detected
same,viability at 1 µM,MDA-MB-231 [29],47%
same,Activity,[30],Non-Toxic
same,inhibition at 0.5 µM,MDA-MB-231 [31],60.7%
same,Activity,MDA-MB-231 [32],Active
same,Activity,MDA-MB-231 [33],inactive
same,Activity,MDA-MB-231 [34],Active
same,Activity,4T1 [35],Active
same,Activity,4T1 [36],Dose-Dependent Effect
